Like-named read-outs stand apart in the source and are kept apart here.
Legend:
[1] = system: isolated porcine coronary artery; assay: Activities against endothelin-induced contraction of isolated porcine coronary arteries; parameters: species or system pig; settings: for shift of the concentration-response curve of endothelin-1: added 20 minutes prior to endothelin-1
Method: The coronary artery of pig was extracted, and a spiral preparation having a width of 1 mm and a length of 10 mm was prepared therefrom.
Endothelin-1 was added into the organ bath in a cumulatively increasing manner, whereby the influence of a compound of the present invention to the concentration-response curve for endothelin-1 was examined. The compound was added into the organ bath 20 minutes prior to the addition of endothelin-1.

isolated rat heart = assay: Effects on the increased perfusion pressure induced by endothelin in isolated rat heart (Langendorff)
Method: The heart of a male Sprague Dohrie (SD) rat was extracted, and the perfusion pressure was measured and recorded according to the Langendorff's method.
Endothelin-1 was cumulatively added to the perfusate, whereby the influence of a compound of the present invention to the concentration-response curve for endothelin-1 was examined. The compound which was dissolved in the perfusate had been infused from 20 minutes prior to the addition of endothelin-1 till just after finishing measurement of the concentration-response curve for endothelin-1.

[2] = system: isolated guinea pig trachea; assay: Activities against endothelin-induced contraction of isolated guinea pig trachea; settings: 6 μM compound; for shift of the concentration-response curve for endothelin-1: added 20 minutes prior to endothelin-1
Method: The trachea of a guinea pig was extracted, and the trachea was cut into rings to afford a preparation.
Endothelin-1 was added into the organ bath in a cumulatively increasing manner, and the influence of a compound of the present invention to the concentration-response curve for endothelin was examined. The compound was added into the organ bath 20 minutes prior to the addition of endothelin-1.

[3] = molecular target: T1, endothelin receptor (membrane of smooth muscle tissue of porcine aorta) (Sus scrofa, UniProt Q29010); assay: Endothelin binding inhibition test (125I-endothelin-1, porcine aorta smooth muscle membrane); settings: read-out: 125I-endothelin-1 binding inhibition
T1 construct: from tissue; host or cells: porcine aorta smooth muscle, membrane fraction
T1 sequence (Q29010 21-427): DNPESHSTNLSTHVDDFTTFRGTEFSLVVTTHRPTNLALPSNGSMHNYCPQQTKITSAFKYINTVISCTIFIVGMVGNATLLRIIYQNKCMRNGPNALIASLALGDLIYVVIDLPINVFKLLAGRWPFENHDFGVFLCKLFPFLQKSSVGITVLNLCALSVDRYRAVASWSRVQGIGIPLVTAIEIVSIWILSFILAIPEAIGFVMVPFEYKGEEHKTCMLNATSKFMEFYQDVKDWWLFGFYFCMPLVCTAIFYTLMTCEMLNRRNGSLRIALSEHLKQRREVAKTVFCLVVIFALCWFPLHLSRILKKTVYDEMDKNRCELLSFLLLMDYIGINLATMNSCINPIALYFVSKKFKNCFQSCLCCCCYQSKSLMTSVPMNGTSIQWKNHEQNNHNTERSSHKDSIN
Method: The smooth muscle tissue of porcine aorta was homogenized in a buffer solution of 10 mM MOPS, pH 7.4, at 4° C. by a polytron. To the homogenate, sucrose was added to a concentration of 20%, and the mixture was centrifuged at 1,000×g for 15 minutes, and the supernatant was further centrifuged at 10,000×g for 15 minutes. The supernatant thereof was further centrifuged at 90,000×g for 40 minutes. The membrane precipitate thereby obtained was suspended in a buffer solution of 5 mM HEPES/Tris, pH 7.4, at a concentration of 25 mg/ml.
Then, 16 μl of this membrane suspension was added to 340 μl of 50 mM Tris/HCl buffer, pH 7.4, containing 10 μM calcium chloride, 10 μM magnesium chloride, 0.1 mM PMSF, 1 μM pepstatin A, 2 μM leupeptin, 1 mM 1,10-phenanthroline and 0.1% bovine serum albumin. To this suspension, 4 μl of (A) endothelin-1 (for nonspecific binding; 0.2 μM as the final concentration), (B) buffer solution A (for total control binding), or (C) a test compound (1.1 μM or 10 μM as the final concentration),was added. Further, to each suspension, 40 μl of ^125 I-endothelin-1 (12000-18000 cpm) was added. These mixtures were incubated at 25° C. for 4 hours, then subjected to filtration on a glass filter GF/C and then washed with 5 mM HEPES/Tris, pH 7.4, containing 0.3% bovine serum albumin. Then, the radioactivity trapped by the glass filter was measured, and the ^125 I-endothelin-1 binding inhibition D (%) at 1.1 μM or 10 μM of the test compound was determined by the following equation. [formula] Each test was performed in triplicate.
The test compounds are indicated by Compound Nos.

Compound: CC(C)C[C@H](NC(=O)N1CCCCCC1)C(=O)N[C@H](Cc1c[nH]c2ccccc12)C(=O)N[C@H](Cc1c[nH]c2ccccc12)C(=O)O [Compound 50]
- maximum response to endothelin-1 ([1]; 2 μM compound): did not affect the maximum response
- shift of the concentration-response curve of endothelin-1 ([1]; 2 μM compound): remarkably shifted the concentration-response curves of endothelin-1 to the right
- maximum response to endothelin-1 (perfusion pressure) (isolated rat heart; 1 μM compound): did not affect the maximum response
- shift of the concentration-response curve for endothelin-1 (perfusion pressure) (isolated rat heart; 1 μM compound in perfusate from 20 minutes prior to endothelin-1): moved the concentration-response curve for endothelin-1to the right
- maximum response to endothelin-1 [2]: did not affect the maximum response
- shift of the concentration-response curve for endothelin-1 [2]: remarkably shifted the concentration-response curves for endothelin-1 to the right
- inhibition at 1.1 µM [3]: 87%

Compound: CC(C)C[C@H](NC(=O)N1CCCCCC1)C(=O)N[C@H](Cc1c[nH]c2ccccc12)C(=O)NCCC(=O)O [Compound 93]
- maximum response to endothelin-1 ([1]; 6 μM compound): did not affect the maximum response
- shift of the concentration-response curve of endothelin-1 ([1]; 6 μM compound): remarkably shifted the concentration-response curves of endothelin-1 to the right
- maximum response to endothelin-1 [2]: did not affect the maximum response
- shift of the concentration-response curve for endothelin-1 [2]: remarkably shifted the concentration-response curves for endothelin-1 to the right
- inhibition at 1.1 µM ([3]; 1.1 μM test compound (no mark)): 78%

Compound: CC(C)C[C@H](NC(=O)OC(C)(C)C)C(=O)N[C@H](Cc1c[nH]c2ccccc12)C(=O)NNCC(=O)O [Compound 148]
- inhibition at 10 µM ([3]; 10 μM test compound (marked *)): 82%

Compound: CC(C)C[C@H](NC(=O)OC(C)(C)C)C(=O)N[C@H](Cc1c[nH]c2ccccc12)C(=O)NN(CC(=O)O)Cc1ccccc1 [Compound 149]
- inhibition at 10 µM ([3]; 10 μM test compound (marked *)): 58%

Compound: CC(C)C[C@H](NC(=O)NN1CCCC1)C(=O)N[C@H](Cc1c[nH]c2ccccc12)C(=O)NCCC(=O)O [Compound 152]
- inhibition at 10 µM ([3]; 10 μM test compound (marked *)): 58%

Compound: CC(C)C[C@@H](C(=O)N[C@H](Cc1c[nH]c2ccccc12)C(=O)N[C@H](Cc1c[nH]c2ccccc12)C(=O)O)N1C(=O)CN(C2CCCC2)C1=O [Compound 155]
- inhibition at 1.1 µM ([3]; 1.1 μM test compound (no mark)): 70%

Compound: CC(C)C[C@H](NC(=O)N1CCCCCC1)C(=O)N[C@H](Cc1cn(C=O)c2ccccc12)C(=O)N[C@H](Cc1c[nH]cn1)C(=O)O [Compound 156]
- inhibition at 1.1 µM ([3]; 1.1 μM test compound (no mark)): 86%

Compound: CC(C)C[C@H](NC(=O)N1CCCCCC1)C(=O)N[C@H](Cc1c[nH]c2ccccc12)C(=O)NCCC(=O)NS(=O)(=O)c1ccccc1 [Compound 157]
- inhibition at 1.1 µM [3]: 69%

Compound: CC(C)C[C@H](NC(=O)N1CCCCCC1)C(=O)N[C@H](Cc1c[nH]c2ccccc12)C(=O)NCCC(=O)NS(C)(=O)=O [Compound 158]
- inhibition at 1.1 µM ([3]; 1.1 μM test compound (no mark)): 57%

Compound: CC(C)C[C@H](NC(=O)N1CCCCCC1)C(=O)N[C@H](Cc1c[nH]c2ccccc12)C(=O)N[C@H](C)CS(=O)(=O)O [Compound 160]
- inhibition at 1.1 µM ([3]; 1.1 μM test compound (no mark)): 86%

Compound: CC(C)C[C@H](NC(=O)N1CCCCCC1)C(=O)N[C@H](Cc1cn(C=O)c2ccccc12)C(=O)NCCS(=O)(=O)O [Compound 161]
- inhibition at 1.1 µM ([3]; 1.1 μM test compound (no mark)): 84%

Compound: CC(C)C[C@H](NC(=O)N1CCCCCC1)C(=O)N[C@H](Cc1cn(C=O)c2ccccc12)C(=O)N[C@H](C)CS(=O)(=O)O [Compound 162]
- inhibition at 1.1 µM ([3]; 1.1 μM test compound (no mark)): 86%

Compound: CC(C)C[C@H](NC(=O)N1CCCCCC1)C(=O)N[C@H](Cc1c[nH]c2ccccc12)C(=O)NN1CCC[C@@H]1C(=O)O [Compound 163]
- inhibition at 1.1 µM ([3]; 1.1 μM test compound (no mark)): 76%

Compound: CC(C)C[C@H](NC(=O)N1CCCCCC1)C(=O)N[C@H](Cc1c[nH]c2ccccc12)C(=O)NN1CCC[C@H]1C(=O)O [Compound 164]
- inhibition at 1.1 µM ([3]; 1.1 μM test compound (no mark)): 71%

Compound: CC(C)C[C@H](NC(=O)N(CC(C)C)C1CCCC1)C(=O)N[C@H](Cc1c[nH]c2ccccc12)C(=O)N[C@H](Cc1c[nH]c2ccccc12)C(=O)O [Compound 172]
- inhibition at 1.1 µM ([3]; 1.1 μM test compound (no mark)): 87%

Compound: CC(C)C[C@H](NC(=O)N1CCCC1(C)C)C(=O)N[C@H](Cc1c[nH]c2ccccc12)C(=O)N[C@H](Cc1c[nH]c2ccccc12)C(=O)O [Compound 173]
- inhibition at 1.1 µM ([3]; 1.1 μM test compound (no mark)): 84%

Compound: CC(C)C[C@H](NC(=O)N(C)C(C)(C)C)C(=O)N[C@H](Cc1cn(C=O)c2ccccc12)C(=O)N[C@H](Cc1c[nH]c2ccccc12)C(=O)O [Compound 174]
- inhibition at 1.1 µM ([3]; 1.1 μM test compound (no mark)): 81%

Compound: COP(=O)(OC)n1cc(C[C@@H](NC(=O)[C@H](CC(C)C)NC(=O)N2CCCCCC2)C(=O)N[C@H](Cc2c[nH]c3ccccc23)C(=O)O)c2ccccc21 [Compound 191]
- inhibition at 10 µM [3]: 74%

Compound: CC(C)C[C@H](NC(=O)C1CCCCCC1)C(=O)N[C@H](Cc1c[nH]c2ccccc12)C(=O)N[C@H](Cc1c[nH]c2ccccc12)C(=O)O [Compound 200]
- inhibition at 1.1 µM ([3]; 1.1 μM test compound (no mark)): 87%

Compound: CC(C)C[C@H](OC(=O)C1CCCCCC1)C(=O)N[C@H](Cc1c[nH]c2ccccc12)C(=O)N[C@H](Cc1c[nH]c2ccccc12)C(=O)O [Compound 201]
- inhibition at 1.1 µM [3]: 69%

— US5470833A, “Endothelin antagonistic peptide derivatives” (Banyu Pharmaceutical Co., Ltd., priority 1990, dated 1995)
